Key:
Jarid1B = molecular target: T1, Jarid1B (Homo sapiens, UniProt Q9UGL1); experiment: Jarid1B in vitro enzyme inhibition assay (TR-FRET); format: biochemical
T1 construct: purchased BPS Bioscience or custom made by MolecularThroughput 50121
T1 sequence (Q9UGL1 2-751): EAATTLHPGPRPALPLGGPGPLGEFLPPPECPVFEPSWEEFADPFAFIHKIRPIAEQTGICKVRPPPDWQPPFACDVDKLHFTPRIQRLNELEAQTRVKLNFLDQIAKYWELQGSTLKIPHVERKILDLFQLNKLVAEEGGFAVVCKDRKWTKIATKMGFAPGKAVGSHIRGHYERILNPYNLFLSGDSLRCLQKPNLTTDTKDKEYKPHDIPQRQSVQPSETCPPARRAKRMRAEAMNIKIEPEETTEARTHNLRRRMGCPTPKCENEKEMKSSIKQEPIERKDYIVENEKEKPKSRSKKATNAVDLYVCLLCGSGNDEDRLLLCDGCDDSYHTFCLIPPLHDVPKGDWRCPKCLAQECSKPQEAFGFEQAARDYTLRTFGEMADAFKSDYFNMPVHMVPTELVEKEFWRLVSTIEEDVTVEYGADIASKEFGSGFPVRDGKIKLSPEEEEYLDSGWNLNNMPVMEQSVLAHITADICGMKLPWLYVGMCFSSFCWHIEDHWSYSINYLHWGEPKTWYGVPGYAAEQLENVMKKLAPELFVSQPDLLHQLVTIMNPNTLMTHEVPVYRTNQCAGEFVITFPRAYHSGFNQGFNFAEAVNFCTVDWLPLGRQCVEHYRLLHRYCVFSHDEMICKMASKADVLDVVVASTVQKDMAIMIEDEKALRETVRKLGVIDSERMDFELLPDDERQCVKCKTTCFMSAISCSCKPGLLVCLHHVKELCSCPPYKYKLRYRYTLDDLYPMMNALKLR
Text: (§1) This assay determines the ability of a test compound to inhibit Jarid1A, Jarid1B, and JMJD2C demethylase activity. Baculovirus expressed Jarid1A (GenBank Accession #NM_001042603, AA1-1090) was purchased from BPS Bioscience (Cat#50110). Baculovirus expressed Jarid1B (GenBank Accession #NM_006618, AA 2-751) was purchased from BPS Bioscience (Cat #50121) or custom made by MolecularThroughput. Baculovirus expressed JMJD2C (GenBank Accession #BC143571, AA 2-372) was purchased from BPS Bioscience (Cat#50105).
The ability of test compounds to inhibit the activity of Jarid1B was determined in 384-well plate format under the following reaction conditions: 0.8 nM Jarid1B, 300 nM H3K4me3-biotin labeled peptide (Anaspec cat #64357), 2 μM alpha-ketoglutaric acid in assay buffer of 50 mM HEPES, pH7.3, 0.005% Brij35, 0.5 mM TCEP, 0.2 mg/ml BSA, 50 μM sodium L-ascorbate, and 2 μM ammonium iron(II) sulfate. Reaction product was determined quantitatively by TR-FRET after the addition of detection reagent Phycolink Streptavidin-allophycocyanin (Prozyme) and Europium-anti-mono-or di-methylated histone H3 lysine 4 (H3K4me1-2) antibody (PerkinElmer) in the presence of 5 mM EDTA in LANCE detection buffer (PerkinElmer) at a final concentration of 25 nM and 1 nM, respectively.
(§2) The assay reaction was initiated by the following: 2 μl of the mixture of 900 nM H3K4me3-biotin labeled peptide and 6 μM alpha-ketoglutaric acid with 2 μl of 11-point serial diluted inhibitor in 3% DMSO was added to each well of the plate, followed by the addition of 2 μl of 2.4 nM Jarid1B to initiate the reaction. The reaction mixture was incubated at room temperature for 30 minutes, and terminated by the addition of 6 μl of 5 mM EDTA in LANCE detection buffer containing 50 nM Phycolink Streptavidin-allophycocyanin and 2 nM Europium-anti-H3K4me1-2 antibody. Plates were read by EnVisionMultilabel Reader in TR-FRET mode (excitation at 320 nm, emission at 615 nm and 665 nm) after 1 hour incubation at room temperature. A ratio was calculated (665/615) for each well and fitted to determine inhibition constant (IC50).

JMJD2C = molecular target: T2, JMJD2C (Homo sapiens, UniProt Q9H3R0); experiment: JMJD2C in vitro enzyme inhibition assay (TR-FRET); format: biochemical
T2 construct: purchased BPS Bioscience 50105
T2 sequence (Q9H3R0 2-372): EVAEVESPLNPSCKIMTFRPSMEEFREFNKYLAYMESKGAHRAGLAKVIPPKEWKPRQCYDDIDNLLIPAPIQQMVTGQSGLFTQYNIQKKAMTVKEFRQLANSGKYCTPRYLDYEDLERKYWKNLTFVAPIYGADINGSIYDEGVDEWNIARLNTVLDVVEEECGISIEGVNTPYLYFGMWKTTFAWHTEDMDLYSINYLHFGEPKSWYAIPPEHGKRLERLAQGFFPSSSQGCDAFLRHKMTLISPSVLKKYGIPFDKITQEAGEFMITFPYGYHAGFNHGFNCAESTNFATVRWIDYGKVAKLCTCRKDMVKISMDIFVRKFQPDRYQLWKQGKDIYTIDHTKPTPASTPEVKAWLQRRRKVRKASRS
Text: as §1
The ability of test compounds to inhibit the activity of JMJD2C was determined in 384-well plate format under the following reaction conditions: 0.3 nM JMJD2C, 300 nM H3K9me3-biotin labeled peptide (Anaspec cat #64360), 2 μM alpha-ketoglutaric acid in assay buffer of 50 mM HEPES, pH7.3, 0.005% Brij35, 0.5 mM TCEP, 0.2 mg/ml BSA, 50 μM sodium L-ascorbate, and 2 μM ammonium iron(II) sulfate. Reaction product was determined quantitatively by TR-FRET after the addition of detection reagent Phycolink Streptavidin-allophycocyanin (Prozyme) and Europium-anti-di-methylated histone H3 lysine 9 (H3K9me2) antibody (PerkinElmer) in the presence of 5 mM EDTA in LANCE detection buffer (PerkinElmer) at a final concentration of 50 nM and 1 nM, respectively.
as §2, with “nM H3K9me3-biotin” for “nM H3K4me3-biotin”, “DMSO were” for “DMSO was”, “of 0.9” for “of 2.4”, “nM JMJD2C” for “nM Jarid1B”, “containing 100” for “containing 50”, “nM Europium-anti-H3K9me2” for “nM Europium-anti-H3K4me1-2”

Row | SMILES | IC50 (Jarid1B) | IC50 (JMJD2C)
1 | Oc1nc(Oc2cnn(Cc3ccccc3)c2)nc2cnccc12 [Example 66, 2-[(1-benzyl-1H-pyrazol-4-yl)oxy]pyrido[3,4-d]pyrimidin-4-ol] | ≤ 100 nM | ≤ 100 nM
2 | Oc1nc(Oc2cnn(C3CCOCC3)c2)nc2cnccc12 [Example 67, 2-{[1-(tetrahydro-2H-pyran-4-yl)-1H-pyrazol-4-yl]oxy}pyrido[3,4-d]pyrimidin-4-ol] | ≤ 100 nM | 100 to 1000 nM
3 | COc1nc(O)c2ccnc(-c3cn(C)cn3)c2n1 [Example 68, 2-methoxy-8-(1-methyl-1H-imidazol-4-yl)pyrido[3,4-d]pyrimidin-4-ol] | ≤ 100 nM | 100 to 1000 nM
4 | CCOc1nc(O)c2ccnc(-c3cn(C)cn3)c2n1 [Example 69, 2-ethoxy-8-(1-methyl-1H-imidazol-4-yl)pyrido[3,4-d]pyrimidin-4-ol] | ≤ 100 nM | 100 to 1000 nM
5 | Cn1cnc(-c2nccc3c(O)nc(OCC(F)(F)F)nc23)c1 [Example 70, 8-(1-methyl-1H-imidazol-4-yl)-2-(2,2,2-trifluoroethoxy)pyrido[3,4-d]pyrimidin-4-ol] | ≤ 100 nM | 100 to 1000 nM
6 | Cn1cnc(-c2nccc3c(O)nc(OCc4ccc(F)cc4)nc23)c1 [Example 71, 2-[(4-fluorobenzyl)oxy]-8-(1-methyl-1H-imidazol-4-yl)pyrido[3,4-d]pyrimidin-4-ol] | ≤ 100 nM | 100 to 1000 nM
7 | Cn1cnc(-c2nccc3c(O)nc(OCC4CC4)nc23)c1 [Example 72, 2-(cyclopropylmethoxy)-8-(1-methylimidazol-4-yl)pyrido[3,4-d]pyrimidin-4-ol] | ≤ 100 nM | 100 to 1000 nM
8 | Cn1cnc(-c2nccc3c(O)nc(OCCCC(F)(F)F)nc23)c1 [Example 74, 8-(1-methylimidazol-4-yl)-2-(4,4,4-trifluorobutoxy)pyrido[3,4-d]pyrimidin-4-ol] | ≤ 100 nM | 100 to 1000 nM
9 | Cn1cnc(-c2nccc3c(O)nc(OCCO)nc23)c1 [Example 75, 2-(2-hydroxyethoxy)-8-(1-methylimidazol-4-yl)pyrido[3,4-d]pyrimidin-4-ol] | ≤ 100 nM | 100 to 1000 nM
10 | CN(C)CCOc1nc(O)c2ccnc(-c3cn(C)cn3)c2n1 [Example 76, 2-[2-(dimethylamino)ethoxy]-8-(1-methylimidazol-4-yl)pyrido[3,4-d]pyrimidin-4-ol] | 100 to 1000 nM | 100 to 1000 nM
11 | Cn1cnc(-c2nccc3c(O)nc(OCC(F)F)nc23)c1 [Example 77, 2-(2,2-difluoroethoxy)-8-(1-methylimidazol-4-yl)pyrido[3,4-d]pyrimidin-4-ol] | ≤ 100 nM | 100 to 1000 nM
12 | Cn1cnc(-c2nccc3c(O)nc(OCCC4CC4)nc23)c1 [Example 78, 2-(2-cyclopropylethoxy)-8-(1-methylimidazol-4-yl)pyrido[3,4-d]pyrimidin-4-ol] | ≤ 100 nM | 100 to 1000 nM
13 | Cn1cnc(-c2nccc3c(O)nc(Oc4cnn(Cc5ccccc5)c4)nc23)c1 [Example 79, 2-(1-benzylpyrazol-4-yl)oxy-8-(1-methylimidazol-4-yl)pyrido[3,4-d]pyrimidin-4-ol] | ≤ 100 nM | 100 to 1000 nM
14 | CC(C)CCn1cc(Oc2nc(O)c3ccnc(-c4cn(C)cn4)c3n2)cn1 [Example 80, 2-[1-(3-methylbutyl)pyrazol-4-yl]oxy-8-(1-methylimidazol-4-yl)pyrido[3,4-d]pyrimidin-4-ol] | ≤ 100 nM | 100 to 1000 nM

Second part, the compound after the results:

Row | IC50 (Jarid1B) | IC50 (JMJD2C) | SMILES
15 | ≤ 100 nM | ≤ 100 nM | CC(C)CCn1cc(Oc2nc(O)c3ccncc3n2)cn1 [Example 55, 2-{[1-(3-methylbutyl)pyrazol-4-yl]oxy}pyrido[3,4-d]pyrimidin-4-ol]
16 | ≤ 100 nM | ≤ 100 nM | Oc1nc(Oc2cnn(C3CCCC3)c2)nc2cnccc12 [Example 56, 2-[(1-cyclopentylpyrazol-4-yl)oxy]pyrido[3,4-d]pyrimidin-4-ol]
17 | ≤ 100 nM | ≤ 100 nM | CCc1cccc(Oc2nc(O)c3ccncc3n2)c1 [Example 57, 2-(3-ethylphenoxy)pyrido[3,4-d]pyrimidin-4-ol]
18 | ≤ 100 nM | 100 to 1000 nM | CCCc1cccc(Oc2nc(O)c3ccncc3n2)c1 [Example 58, 2-(3-propylphenoxy)pyrido[3,4-d]pyrimidin-4-ol]
19 | ≤ 100 nM | 100 to 1000 nM | CN(C)c1ccc(Oc2nc(O)c3ccncc3n2)cc1 [Example 59, 2-[4-(dimethylamino)phenoxy]pyrido[3,4-d]pyrimidin-4-ol]
20 | ≤ 100 nM | 100 to 1000 nM | O=C(c1cc(F)cc(Oc2nc(O)c3ccncc3n2)c1)N1CCOCC1 [Example 60]
21 | ≤ 100 nM | 100 to 1000 nM | COCCn1ncc2ccc(Oc3nc(O)c4ccncc4n3)cc21 [Example 61, 2-{[1-(2-methoxyethyl)-1H-indazol-6-yl]oxy}pyrido[3,4-d]pyrimidin-4-ol]
22 | ≤ 100 nM | ≤ 100 nM | CCn1cc(Oc2nc(O)c3ccncc3n2)cn1 [Example 62, 2-[(1-ethyl-1H-pyrazol-4-yl)oxy]pyrido[3,4-d]pyrimidin-4-ol]
23 | ≤ 100 nM | 100 to 1000 nM | CC(C)n1cc(Oc2nc3cnccc3c(=O)[nH]2)cn1 [Example 63, 2-{[1-(propan-2-yl)-1H-pyrazol-4-yl]oxy}pyrido[3,4-d]pyrimidin-4-ol]
24 | ≤ 100 nM | 100 to 1000 nM | COCCn1cc(Oc2nc(O)c3ccncc3n2)cn1 [Example 64, 2-{[1-(2-methoxyethyl)-1H-pyrazol-4-yl]oxy}pyrido[3,4-d]pyrimidin-4-ol]
25 | ≤ 100 nM | 100 to 1000 nM | COCCCn1cc(Oc2nc(O)c3ccncc3n2)cn1 [Example 65, 2-{[1-(3-methoxypropyl)-1H-pyrazol-4-yl]oxy}pyrido[3,4-d]pyrimidin-4-ol]

From US10526327B2, “Histone demethylase inhibitors” (CELGENE QUANTICEL RESEARCH, INC., priority 2013, dated 2020)
